From PubChem BioAssay AID588712 (The Scripps Research Institute Molecular Screening Center, 2011)
“And” between values parts separate entries of the source, which are not always exact repeats. Equal entries are not always repeated. The source made the active and inactive calls. The rule behind the calls is not given here.

molecular target: Insulin-degrading enzyme (Homo sapiens) (UniProt P14735); assay: IDE inhibition in live cells – cell-based, fluorescence polarization, late-stage follow-up (AID 588712); settings: cell-based IDE activity
Sequence (P14735 whole entry, looked up): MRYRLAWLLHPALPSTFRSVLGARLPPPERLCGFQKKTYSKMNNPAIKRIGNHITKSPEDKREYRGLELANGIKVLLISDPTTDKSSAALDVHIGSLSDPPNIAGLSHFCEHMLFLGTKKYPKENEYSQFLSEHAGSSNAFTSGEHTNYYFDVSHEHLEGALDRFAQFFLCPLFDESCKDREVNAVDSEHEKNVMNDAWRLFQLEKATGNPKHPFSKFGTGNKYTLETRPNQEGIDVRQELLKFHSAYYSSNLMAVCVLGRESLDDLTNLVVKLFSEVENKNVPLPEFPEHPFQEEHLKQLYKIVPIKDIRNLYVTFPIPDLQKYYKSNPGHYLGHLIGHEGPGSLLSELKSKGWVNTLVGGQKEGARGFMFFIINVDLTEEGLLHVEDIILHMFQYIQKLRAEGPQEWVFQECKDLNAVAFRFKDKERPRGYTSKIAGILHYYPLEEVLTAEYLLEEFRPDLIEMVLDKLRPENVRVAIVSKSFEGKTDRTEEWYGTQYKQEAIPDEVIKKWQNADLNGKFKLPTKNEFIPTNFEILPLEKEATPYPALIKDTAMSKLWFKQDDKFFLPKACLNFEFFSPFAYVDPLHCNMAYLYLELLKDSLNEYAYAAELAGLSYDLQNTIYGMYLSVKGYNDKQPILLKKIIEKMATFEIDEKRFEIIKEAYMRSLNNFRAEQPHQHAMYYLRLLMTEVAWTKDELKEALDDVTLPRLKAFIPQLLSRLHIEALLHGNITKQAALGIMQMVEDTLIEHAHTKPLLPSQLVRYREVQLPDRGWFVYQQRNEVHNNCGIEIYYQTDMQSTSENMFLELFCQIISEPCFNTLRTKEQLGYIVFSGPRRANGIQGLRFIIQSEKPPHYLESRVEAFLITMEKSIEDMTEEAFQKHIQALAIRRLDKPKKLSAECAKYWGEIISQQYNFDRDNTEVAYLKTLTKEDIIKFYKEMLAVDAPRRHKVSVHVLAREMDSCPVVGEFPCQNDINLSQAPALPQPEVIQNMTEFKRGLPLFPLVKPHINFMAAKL

| Structure (SMILES) | IC50 |
| --- | --- |
| O=C(Nc1ccc2oc(-c3cccnc3)nc2c1)c1ccc2c(c1)OCCO2 | > 54.7 µM (inactive) |
| Clc1cccc(-c2nnc(SCc3nc4ccccc4[nH]3)n2-c2ccccc2)c1 | > 54.7 µM (inactive) |
| O=C(Nc1cccc(C(F)(F)F)c1)c1csc(-c2ccccc2)n1 | > 54.7 µM (inactive) |
| COc1ccc(-c2nc(C(=O)Nc3cccc(C(F)(F)F)c3)cs2)cc1 | > 54.7 µM (inactive) |
| O=C(CSc1nnc(-c2cccc(Cl)c2)n1Cc1ccco1)c1ccc2ccccc2c1 | > 54.7 µM (inactive) |
| Nc1c(C(=O)Nc2nccs2)sc2nc(-c3cccs3)cc(C(F)(F)F)c12 | > 54.7 µM (inactive) |
| O=C(Nc1cccc(C(F)(F)F)c1)c1csc(Cc2cccc(C(F)(F)F)c2)n1 | > 54.7 µM (inactive) |
| CC(Sc1nnc(-c2cccnc2)n1-c1ccccc1F)C(=O)N1CCCc2ccccc21 (stereo unspecified) | > 54.7 µM (inactive) |
| COc1ccc(C(=O)N2CCN(C(=O)C3COc4ccccc4O3)CC2)cc1OC (stereo unspecified) | > 54.7 µM (inactive) |
| O=C(CSc1nnc(-c2cccc(Cl)c2)n1Cc1ccco1)Nc1ccc2c(c1)OCCO2 | > 54.7 µM (inactive) |
| Cc1ccc(C)c(N2C(=N)S/C(=C\c3ccc(-c4ccccc4C(=O)O)o3)C2=O)c1 | > 54.7 µM (inactive) |
| O=c1c2ccccc2sn1-c1cc(S(=O)(=O)N2CCOCC2)ccc1N1CCOCC1 | 2.17 µM |
| O=C(CSc1nnc(-c2cccc(Cl)c2)n1Cc1ccco1)Nc1ccc2cn[nH]c2c1 | > 54.7 µM (inactive) |
| CCN(CC)c1ccc(/C=C2\C(=N)N3N=C(CC(=O)N4CCOCC4)SC3=NC2=O)cc1 | inactive |
| O=C(Nc1cccc(C(F)(F)F)c1)c1csc(-c2cccc(C(F)(F)F)c2)n1 | > 54.7 µM (inactive) |
| Cc1ccc(NC(=O)CSc2nnc(-c3cccc(Cl)c3)n2Cc2ccco2)c(C)c1 | > 54.7 µM (inactive) |

| Structure (SMILES) | IC50 |
| --- | --- |
| Cc1nc(-c2cccnc2)sc1C(=O)Nc1cccc(C(F)(F)F)c1 | > 54.7 µM (inactive) |
| Cc1cccc(-c2nnc(SCc3nc4ccccc4[nH]3)n2Cc2ccco2)c1 | 9.21 µM and 8.91 µM |
| CCOc1ccc2[nH]c3c(N4CCN(C(=O)c5ccco5)CC4)ncnc3c2c1 | inactive |
| Cc1c(CCC(=O)NCCCn2ccnc2)c(=O)oc2cc3oc4c(c3cc12)CCCC4 | 7.32 µM |
| Cc1ccc(-c2nc(C(=O)Nc3cccc(C(F)(F)F)c3)cs2)cc1 | > 54.7 µM (inactive) |
| Cn1c(SCc2nc3ccccc3[nH]2)nnc1-c1cccc(Cl)c1 | > 54.7 µM (inactive) |
| O=C(Nc1cccc(C(F)(F)F)c1)c1csc(-c2ccncc2)n1 | 5.74 µM |
| O=C(C1CC1)N1CCN(c2ccnc3cc(Cl)ccc23)CC1 | > 54.7 µM (inactive) |
| Cn1c(=O)c(C(=O)CN2CCCc3ccccc32)c(N)n(Cc2ccccc2)c1=O | > 54.7 µM (inactive) |
| COc1ccc(NC(=O)CSc2nnc(CN3CCOCC3)n2C)cc1Cl | > 54.7 µM (inactive) |
| O=C(CSc1nnc(-c2cccc(Cl)c2)n1Cc1ccco1)Nc1ccccc1C(F)(F)F | > 54.7 µM (inactive) |
| COc1cccc(-c2nnc(SCc3nc4ccccc4[nH]3)n2Cc2ccco2)c1 | 9.38 µM |
| Clc1cccc(-c2nnc(SCc3nc4ccccc4[nH]3)n2Cc2ccco2)c1 | 3.09 µM |
| COc1cc(/C=C2\SC(=S)N(NC(C)=O)C2=O)ccc1OC(=O)c1ccco1 | inactive |
| O=C(Nc1cc(C(F)(F)F)cc(C(F)(F)F)c1)c1csc(-c2ccncc2)n1 | > 54.7 µM (inactive) |
